Assay: Storage stability of allicin in aqueous solution
Type: physicochemical

stability in solution (0.5% solution at −40° C., filtered to remove impurities): reasonably stable
stability in solution (concentrations above 0.5% solution in water): extremely unstable
effect of pH on stability (diluted solution, pH controlled to approximately pH 4.5): increases the stability
stability on storage (non-extracted solution diluted to approximately 'it' allicin, stored below −20° C.): stable for several months
stability in solution (solution of up to 1.0% v/v allicin): unstable
SMILES: C=CCS[S+]([O-])CC=C (centres unmarked) [allicin, thio-2-propene-1-sulfinic acid S-allyl ester]

Source: patent US7179632B2, “Process for the production of allicin” (Neem Biotech Ltd., priority 2001, dated 2007)
